Earlier results in patent US12390418B2, “Biphasic compositions comprising one or both of carbonate and phosphate” (NATURAL EXTRACTION SYSTEMS, LLC, priority 2021, dated 2025).

conditions: in water at 20 degrees Celsius

Compound | association constant for protonation (Kb)
O=C(O)O [bicarbonate] | approximately 22 nanomolar
O=C(O)O [carbonate] | approximately 210 micromolar
O=P(O)(O)O [hydrogen phosphate] | approximately 160 nanomolar
phosphate | approximately 23 millimolar
